Data reported in PubChem BioAssay AID1963977 (Molecular Pharmacology Branch, DTP, NCI, 2024).

System: 624824-186-R-J3-PDC multicell spheroids, viability
Experiment: Anticancer human tumor 624824-186-R-J3-PDC patient-derived colon adenocarcinoma cell line growth inhibition [PI3K]
Conditions: for viability, T/C: stronger effect = lower value; active means viability on the fitted dose curve at most 10% of control; inactive means the rest
Procedure, shortened: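 Viability of mixed-cell spheroids was determined after exposure to pairwise combinations, one partner being inavolisib, alpelisib, duvelisib or copanlisib. Highest tested concentration matched clinical Cmax where known and 10 microM where not, descending in half-log steps.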

[1] = curve of first compound, second compound 0.0316 µM
[2] = curve of first compound, second compound 0.1 µM
[3] = curve of first compound, second compound 0.316 µM
[4] = curve of first compound, second compound 1 µM
[5] = curve of first compound, second compound 3.16 µM
[6] = curve of first compound, second compound 10 µM
[7] = second compound 0.0316 µM, first compound 0.00316 µM
[8] = second compound 0.0316 µM, first compound 0.01 µM
[9] = second compound 0.0316 µM, first compound 0.0316 µM
[10] = second compound 0.0316 µM, first compound 0.1 µM
[11] = second compound 0.1 µM, first compound 0.00316 µM
[12] = second compound 0.1 µM, first compound 0.01 µM
[13] = second compound 0.1 µM, first compound 0.0316 µM
[14] = second compound 0.1 µM, first compound 0.1 µM
[15] = second compound 0.316 µM, first compound 0.00316 µM
[16] = second compound 0.316 µM, first compound 0.01 µM
[17] = second compound 0.316 µM, first compound 0.0316 µM
[18] = second compound 0.316 µM, first compound 0.1 µM
[19] = second compound 1 µM, first compound 0.00316 µM
[20] = second compound 1 µM, first compound 0.01 µM
[21] = second compound 1 µM, first compound 0.0316 µM
[22] = second compound 1 µM, first compound 0.1 µM
[23] = second compound 3.16 µM, first compound 0.0316 µM
[24] = second compound 3.16 µM, first compound 0.1 µM
[25] = second compound 10 µM, first compound 0.0316 µM
[26] = second compound 10 µM, first compound 0.1 µM
[27] = second compound 0.0316 µM, first compound 0.316 µM
[28] = second compound 0.0316 µM, first compound 1 µM
[29] = second compound 0.1 µM, first compound 0.316 µM
[30] = second compound 0.1 µM, first compound 1 µM
[31] = second compound 0.316 µM, first compound 0.316 µM
[32] = second compound 0.316 µM, first compound 1 µM
[33] = second compound 1 µM, first compound 0.316 µM
[34] = second compound 1 µM, first compound 1 µM
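Further: spheroids exposed to agents for seven days before luminescence read.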
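Wherever viability, T/C is given: luminescent signal used as a stand-in for spheroid viability; percent viability relative to DMSO vehicle control wells taken as 100%.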

CC(=O)c1c(C)c2cnc(Nc3ccc(N4CCNCC4)cn3)nc2n(C2CCCC2)c1=O + Cc1nc(NC(=O)N2CCCC2C(N)=O)sc1-c1ccnc(C(C)(C)C(F)(F)F)c1
63.9 nM: IC50 [6]
> 100 nM: IC50 [1] | IC50 [2] | IC50 [3] | IC50 [4] | IC50 [5]
inactive: viability, T/C (second compound 0.0316 µM, first compound 0.000316 µM) 109% | viability, T/C (second compound 0.0316 µM, first compound 0.001 µM) 102% | viability, T/C [7] 119% | viability, T/C [8] 99.5% | viability, T/C [9] 112% | viability, T/C [10] 101% | viability, T/C (second compound 0.1 µM, first compound 0.000316 µM) 97.3% | viability, T/C (second compound 0.1 µM, first compound 0.001 µM) 104% | viability, T/C [11] 113% | viability, T/C [12] 103% | viability, T/C [13] 107% | viability, T/C [14] 106% | viability, T/C (second compound 0.316 µM, first compound 0.000316 µM) 112% | viability, T/C (second compound 0.316 µM, first compound 0.001 µM) 107% | viability, T/C [15] 114% | viability, T/C [16] 110% | viability, T/C [17] 104% | viability, T/C [18] 109% | viability, T/C (second compound 1 µM, first compound 0.000316 µM) 106% | viability, T/C (second compound 1 µM, first compound 0.001 µM) 99.1% | viability, T/C [19] 109% | viability, T/C [20] 94.8% | viability, T/C [21] 101% | viability, T/C [22] 93.4% | viability, T/C (second compound 3.16 µM, first compound 0.000316 µM) 85.7% | viability, T/C (second compound 3.16 µM, first compound 0.001 µM) 95.7% | viability, T/C (second compound 3.16 µM, first compound 0.00316 µM) 97.8% | viability, T/C (second compound 3.16 µM, first compound 0.01 µM) 85.1% | viability, T/C [23] 85.3% | viability, T/C [24] 62.9% | viability, T/C (second compound 10 µM, first compound 0.000316 µM) 71.8% | viability, T/C (second compound 10 µM, first compound 0.001 µM) 73.1% | viability, T/C (second compound 10 µM, first compound 0.00316 µM) 76% | viability, T/C (second compound 10 µM, first compound 0.01 µM) 64.6% | viability, T/C [25] 59.7% | viability, T/C [26] 43.9%

C=CC(=O)N1CCN(c2nc(=O)n(-c3c(C)ccnc3C(C)C)c3nc(-c4c(O)cccc4F)c(F)cc23)C(C)C1 (configuration not stated) + CC(Nc1ncnc2nc[nH]c12)c1cc2cccc(Cl)c2c(=O)n1-c1ccccc1
> 10000 nM: IC50 [1] | IC50 [2] | IC50 [3] | IC50 [4] | IC50 [5] | IC50 [6]
inactive: viability, T/C [9] 125% | viability, T/C [10] 96.1% | viability, T/C [27] 114% | viability, T/C [28] 102% | viability, T/C (second compound 0.0316 µM, first compound 3.16 µM) 113% | viability, T/C (second compound 0.0316 µM, first compound 10 µM) 121% | viability, T/C [13] 105% | viability, T/C [14] 94.6% | viability, T/C [29] 121% | viability, T/C [30] 97.7% | viability, T/C (second compound 0.1 µM, first compound 3.16 µM) 107% | viability, T/C (second compound 0.1 µM, first compound 10 µM) 119% | viability, T/C [17] 96.9% | viability, T/C [18] 116% | viability, T/C [31] 100% | viability, T/C [32] 108% | viability, T/C (second compound 0.316 µM, first compound 3.16 µM) 111% | viability, T/C (second compound 0.316 µM, first compound 10 µM) 120% | viability, T/C [21] 106% | viability, T/C [22] 111% | viability, T/C [33] 109% | viability, T/C [34] 111% | viability, T/C (second compound 1 µM, first compound 3.16 µM) 127% | viability, T/C (second compound 1 µM, first compound 10 µM) 116% | viability, T/C [23] 104% | viability, T/C [24] 107% | viability, T/C (second compound 3.16 µM, first compound 0.316 µM) 97.9% | viability, T/C (second compound 3.16 µM, first compound 1 µM) 106% | viability, T/C (second compound 3.16 µM, first compound 3.16 µM) 102% | viability, T/C (second compound 3.16 µM, first compound 10 µM) 115% | viability, T/C [25] 95.3% | viability, T/C [26] 103% | viability, T/C (second compound 10 µM, first compound 0.316 µM) 95.5% | viability, T/C (second compound 10 µM, first compound 1 µM) 114% | viability, T/C (second compound 10 µM, first compound 3.16 µM) 99.6% | viability, T/C (second compound 10 µM, first compound 10 µM) 93.3%

CCN1CCN(Cc2ccc(Nc3ncc(F)c(-c4cc(F)c5nc(C)n(C(C)C)c5c4)n3)nc2)CC1 + CC(Nc1ccc2c(c1)OCCn1cc(N3C(=O)OCC3C(F)F)nc1-2)C(N)=O
287 nM: IC50 [4]
inactive: viability, T/C (second compound 0.00316 µM, first compound 0.00316 µM) 99.2% | viability, T/C (second compound 0.00316 µM, first compound 0.01 µM) 96.2% | viability, T/C (second compound 0.00316 µM, first compound 0.0316 µM) 106% | viability, T/C (second compound 0.00316 µM, first compound 0.1 µM) 101% | viability, T/C (second compound 0.00316 µM, first compound 0.316 µM) 93.2% | viability, T/C (second compound 0.00316 µM, first compound 1 µM) 97.1% | viability, T/C (second compound 0.01 µM, first compound 0.00316 µM) 101% | viability, T/C (second compound 0.01 µM, first compound 0.01 µM) 89% | viability, T/C (second compound 0.01 µM, first compound 0.0316 µM) 114% | viability, T/C (second compound 0.01 µM, first compound 0.1 µM) 102% | viability, T/C (second compound 0.01 µM, first compound 0.316 µM) 104% | viability, T/C (second compound 0.01 µM, first compound 1 µM) 90% | viability, T/C [7] 101% | viability, T/C [8] 97.8% | viability, T/C [9] 102% | viability, T/C [10] 105% | viability, T/C [27] 89.6% | viability, T/C [28] 76.3% | viability, T/C [11] 94.6% | viability, T/C [12] 96% | viability, T/C [13] 103% | viability, T/C [14] 105% | viability, T/C [29] 75.2% | viability, T/C [30] 58.3% | viability, T/C [15] 94.5% | viability, T/C [16] 92.9% | viability, T/C [17] 105% | viability, T/C [18] 77.2% | viability, T/C [31] 54.6% | viability, T/C [32] 49% | viability, T/C [19] 95.6% | viability, T/C [20] 87.6% | viability, T/C [21] 81.1% | viability, T/C [22] 56.5% | viability, T/C [33] 45.4% | viability, T/C [34] 52.5%
> 1000 nM: IC50 (curve of first compound, second compound 0.00316 µM) | IC50 (curve of first compound, second compound 0.01 µM) | IC50 [1] | IC50 [2] | IC50 [3]

CC(Nc1ncnc2nc[nH]c12)c1cc2cccc(Cl)c2c(=O)n1-c1ccccc1 (configuration not stated)
> 10000 nM: IC50 (compound alone, run of 04/25/2023)
inactive: viability, T/C (compound 0.0316 µM) 103% [middle of 8 runs] | viability, T/C (compound 0.316 µM) 106% [middle of 8 runs] | viability, T/C (compound 1 µM) 108% [middle of 8 runs] | viability, T/C (compound 3.16 µM) 106% [middle of 8 runs] | viability, T/C (compound 10 µM) 94.7% [middle of 8 runs]
